The nature of data set [1]: Aqueous solubility study in Britton-Robinson's buffer (HPLC-UV). Type of data set: physicochemical. The conditions noted are these: ambient temperature overnight; for solubility: thermodynamic from solid. As for the experimental part:
The test compound (2.5 mg of solid; n=1) was weighed in a clear glass vial and Britton-Robinson's buffer (0.5 mL) was added (pH 2.01, pH 3.06, pH 4.06, pH 5.08, pH 5.99, pH 6.98, and pH 8.16). The solution was agitated at ambient temperature overnight using a vial roller system, and then filtered (0.45 μm pore size; without pre-saturation). Two aliquots (50 μL) were sampled from the filtrate and diluted with one volume of 0.1 N hydrochloric acid and methanol (1:1 v/v) before analysis by HPLC-UV. A standard was prepared in DMSO at 10 mg/mL (n=1) which was then diluted 10-fold in 0.1 N hydrochloric acid and methanol (1:1 v/v) to give a 1 mg/mL solution. The concentration of test compound in the filtrate was quantified relative to the concentration standard.
Analysis was done using a gradient HPLC-UV system with a total cycle time of 6 min. The UV detection between 220 nm and 300 nm was done using a photodiode array detector.
The values given in the table above are for crystalline YF476 and (TR2-A) and amorphous (TR1).

The nature of data set [2]: Pharmacokinetics in healthy subjects, single oral dose, API in capsule. The conditions noted are these: human, in vivo; after single oral doses of (TR2-A); analyte TR2-A; read-out: AUC0-24 h of plasma concentrations of (TR2-A). How it is done: In an initial study, healthy volunteers took a single oral dose of 100 mg (TR2) as an active pharmaceutical ingredient (API) in a capsule. Plasma concentrations were measured.
In further clinical studies, healthy volunteers (n=8) took single oral doses of 5, 15, 50 and 100 mg (TR2) as an active pharmaceutical ingredient (API) in a capsule. (Capsule formulation TR2 powder (API) in a hard gelatin capsule, no excipients, no processing). Plasma concentrations were measured.
Healthy volunteers (n=8) took single oral doses of 5, 15, 25 and 50 mg (TR2-A) as API in a capsule (TR2-A (crystalline) in hard gelatin capsule with no excipient, no processing of the API). Plasma concentrations of (TR2) and (TR2-A) were measured. The area under the curve of plasma concentrations of (TR2) after a single oral dose of 50 mg of (TR2-A) API (AUC0-24 h=212.5) was about the same as that observed for a similar formulation of a single oral dose of (TR2) 100 mg (AUC0-24 h=241.5).

A further data set has as its target T1, rat brain CCK2 receptors (Rattus norvegicus, UniProt P30553).
T1 construct: host or cells: rat brain
T1 sequence (P30553 1-452): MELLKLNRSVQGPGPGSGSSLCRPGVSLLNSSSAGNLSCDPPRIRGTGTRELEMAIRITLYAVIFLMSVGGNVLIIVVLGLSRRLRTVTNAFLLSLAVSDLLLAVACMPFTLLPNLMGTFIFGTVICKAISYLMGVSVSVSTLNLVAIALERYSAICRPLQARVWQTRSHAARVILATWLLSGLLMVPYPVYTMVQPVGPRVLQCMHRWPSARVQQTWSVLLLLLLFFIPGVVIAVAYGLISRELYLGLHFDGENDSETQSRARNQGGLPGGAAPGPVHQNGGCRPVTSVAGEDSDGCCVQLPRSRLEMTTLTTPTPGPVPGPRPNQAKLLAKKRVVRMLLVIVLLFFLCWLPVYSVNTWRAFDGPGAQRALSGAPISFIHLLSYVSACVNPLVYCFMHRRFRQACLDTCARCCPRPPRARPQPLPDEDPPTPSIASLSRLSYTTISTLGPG
The conditions noted are these: cited from earlier work.

For data set [3] the following is noted: cited from earlier work.
Data set [4] deals with AGSGR cells (gastric adenocarcinoma cell line transfected with human gastrin/CCK2 receptor gene). Briefly: Sulphorhodamine-B (SRB) proliferation assay, G17-treated cells. Type of data set: cell-based. The conditions noted are these: compound 100 nM, G17 10 nM. How it is done:
The potency of (TR2) and (TR3) was tested in a sulphorhodamine-B (SRB) proliferation assay in a human gastric adenocarcinoma cell line stably transfected with the human gastrin/CCK2 receptor gene (AGSGR). SRB is a fluorescent dye that binds to proteins, so cells with a high rate of protein synthesis (proliferative cells) will show high levels of fluorescence in the SRB assay. […] (TR2) and (TR3) were compared with the positive controls YF476 and YM022.

For a further data set, the target named is T2, CCK2 (human) (Homo sapiens, UniProt P32239).
T2 sequence (P32239 1-447): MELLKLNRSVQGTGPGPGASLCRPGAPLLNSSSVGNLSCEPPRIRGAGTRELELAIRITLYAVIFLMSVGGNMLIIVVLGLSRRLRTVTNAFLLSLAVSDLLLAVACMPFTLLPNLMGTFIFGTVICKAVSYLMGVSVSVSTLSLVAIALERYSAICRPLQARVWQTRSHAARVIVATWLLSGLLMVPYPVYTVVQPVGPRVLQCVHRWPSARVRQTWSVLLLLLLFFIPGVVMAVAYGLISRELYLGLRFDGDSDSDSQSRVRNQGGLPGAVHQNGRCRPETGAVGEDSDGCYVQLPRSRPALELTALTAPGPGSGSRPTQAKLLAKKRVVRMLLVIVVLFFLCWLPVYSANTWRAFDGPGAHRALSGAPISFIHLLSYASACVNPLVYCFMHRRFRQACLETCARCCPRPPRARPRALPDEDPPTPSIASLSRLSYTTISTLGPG
Briefly: CCK2 receptor functional assay (antagonist effect, cAMP, HTRF). It counts as cell-based. Details: expressed in transfected cells; host or cells: CHO cells. An excerpt: (TR2) and (TR3) were compared with YF476 and YM022 in CCK1 and CCK2 receptor functional assays with the following assay criteria.
The potency of the antagonists is expressed as IC50, the concentration of antagonist that causes a half-maximum inhibition of the control agonist response. The affinity of the antagonist for the receptor is expressed as KB, the concentration of antagonist, which would occupy 50% of the receptors at equilibrium.
(In general: In TR-FRET formats the signal depends on donor and acceptor labels being close together.)

Setting [5] is: pH 2.01, Britton-Robinson's buffer.
Setting [6] is: pH 3.06, Britton-Robinson's buffer.
The mark [7] stands for this setting: pH 4.06, Britton-Robinson's buffer.
[8] abbreviates: pH 5.08, Britton-Robinson's buffer.
[9] abbreviates: pH 5.99, Britton-Robinson's buffer.
Setting [10] is: pH 6.98, Britton-Robinson's buffer.
Where [11] appears, read: pH 8.16, Britton-Robinson's buffer.

pIC50: −log10 of the molar value. Converted amounts (≈) assume the structure as drawn. Read-outs that look alike come from different tables or passages of the source.

Broadly, the Aqueous solubility is the dissolved amount per volume that the medium holds. Usually solubility stands for how much of the substance goes into solution per volume. Higher therefore signals much dissolved substance. The term pIC50 denotes −log10 of the IC50, conventionally taken in molar units. As a reminder, the Kb is the affinity of an antagonist, worked out from how it opposes an agonist. Low readings indicate a more potent antagonist, high ones a less potent antagonist.

For the compound `CNc1cccc(NC(=O)N[C@@H]2N=C(c3ccccn3)c3ccccc3N(CC(=O)C(C)(C)COC(C)=O)C2=O)c1` [TR2-A amorphous], the Aqueous solubility in data set [1] (setting [5]) worked out at 5000 µg/mL; in data set [1] (setting [6]) it was 683 µg/mL; in data set [1] (setting [7]), 282 µg/mL; in data set [1] (setting [8]), 128 µg/mL; in data set [1] (setting [9]), 53.4 µg/mL; in data set [1] (setting [10]), 43 µg/mL. In data set [1] (setting [11]), this compound gave an Aqueous solubility of 40.2 µg/mL.
For the compound `CNc1cccc(NC(=O)N[C@@H]2N=C(c3ccccn3)c3ccccc3N(CC(=O)C(C)(C)COC(C)=O)C2=O)c1` [TR2-A, (R)-1-[1-(4-Acetoxy-3,3-dimethyl-2-oxo-butyl)-2-oxo-5-pyridin-2-yl-2,3-dihydro-1H-benzo[e][1,4]diazepin-3-yl]-3-(3-methylamino-phenyl)-urea], the solubility in data set [1] (pH 2.01, aqueous buffer, pH 2.01, Britton-Robinson's buffer) stood at 4190 µg/mL (≈ 7530 µM); in data set [1] (pH 3.06, aqueous buffer, pH 3.06, Britton-Robinson's buffer) it was 730 µg/mL (≈ 1310 µM); in data set [1] (pH 4.06, aqueous buffer, pH 4.06, Britton-Robinson's buffer) it was 218 µg/mL (≈ 392 µM); in data set [1] (pH 5.99, aqueous buffer, pH 5.99, Britton-Robinson's buffer), 47.2 µg/mL (≈ 84.8 µM); in data set [1] (pH 6.98, aqueous buffer, pH 6.98, Britton-Robinson's buffer), 51 µg/mL (≈ 91.6 µM); in data set [1] (pH 8.16, aqueous buffer, pH 8.16, Britton-Robinson's buffer), 45.4 µg/mL (≈ 81.6 µM). The compound also returned an Aqueous solubility in data set [1] (setting [8]) of 56 µg/mL. Also, the AUC(0-t) in data set [2] was below 10 ng·h/mL.
For `Cc1cccc(NC(=O)N[C@@H]2N=C(c3ccccc3)c3ccccc3N(CC(=O)c3ccccc3C)C2=O)c1` [YM022, reference compound], at rat brain CCK2 receptors, the “Affinity at rat brain CCK2 receptors” value is recorded as “subnanomolar” and the “Affinity at rat brain CCK2 receptors relative to rat pancreatic CCK1 receptors” value was “more than two orders of magnitude higher”. In data set [3], the Aqueous solubility result was “low”. Moreover, in data set [4], the “Inhibition of the anti-proliferative effects of G17” value was “completely inhibited”. In addition, at CCK2 (human), the pIC50 is 9.26 and the Kb came out at 0.68 nM.
Turning to `CNc1cccc(NC(=O)NC2N=C(c3ccccn3)c3ccccc3N(CC(=O)C(C)(C)CO)C2=O)c1` (racemic) [TR1, 1-[1-(4-Hydroxy-3,3-dimethyl-2-oxo-butyl)-2-oxo-5-pyridin-2-yl-2,3-dihydro-1H-1,4-benzodiazepin-3-yl]-3-(3-methylamino-phenyl)-urea], the solubility in data set [1] (aqueous buffer, pH 2.01, Britton-Robinson's buffer) stood at 5000 µg/mL (≈ 9720 µM); in data set [1] (aqueous buffer, pH 3.06, Britton-Robinson's buffer), 645 µg/mL (≈ 1250 µM); in data set [1] (aqueous buffer, pH 4.06, Britton-Robinson's buffer) it was 58.2 µg/mL (≈ 113 µM); in data set [1] (aqueous buffer, pH 5.08, Britton-Robinson's buffer), 9.8 µg/mL (≈ 19 µM); in data set [1] (aqueous buffer, pH 5.99, Britton-Robinson's buffer) it was 11.6 µg/mL (≈ 22.5 µM); in data set [1] (aqueous buffer, pH 6.98, Britton-Robinson's buffer), 5.84 µg/mL (≈ 11.3 µM). In addition, the solubility in data set [1] (aqueous buffer, pH 8.16, Britton-Robinson's buffer) came to 7.81 µg/mL (≈ 15.2 µM).
With `CNc1cccc(NC(=O)N[C@@H]2N=C(c3ccccn3)c3ccccc3N(CC(=O)C(C)(C)COC(C)=O)C2=O)c1` [TR2-A crystalline], the Aqueous solubility in data set [1] (setting [5]) worked out at 4190 µg/mL; in data set [1] (setting [6]), 730 µg/mL; in data set [1] (setting [7]), 218 µg/mL; in data set [1] (setting [8]), 56 µg/mL; in data set [1] (setting [9]) it was 47.2 µg/mL; in data set [1] (setting [10]), 51 µg/mL. In addition, the Aqueous solubility in data set [1] (setting [11]) worked out at 45.4 µg/mL.

Source of the values: patent US10906884B2, “Benzodiazepine derivatives as CCK2/gastrin receptor antagonists” (Trio Medicines Ltd, priority 2014, dated 2021).
